Measured values taken from the NIST ThermoML archive (doi:10.1016/j.jct.2005.01.017).
Numbers after ± are expanded uncertainties.

Test: xn = mol fraction of the nth substance listed
Details: 101 kPa, Liquid

CC1COC(=O)O1 (stereo unspecified) [4-methyl-1,3-dioxolan-2-one] + Cc1ccccc1C
Details	mass density [kg/m3]
293.15 K, x2 = 0	1200.25 ± 40
293.15 K, x2 = 0.0538	1176.67 ± 40
293.15 K, x2 = 0.1287	1145.43 ± 40
293.15 K, x2 = 0.1843	1123.36 ± 40
293.15 K, x2 = 0.2358	1103.71 ± 40
293.15 K, x2 = 0.3149	1074.93 ± 40
293.15 K, x2 = 0.3559	1060.64 ± 40
293.15 K, x2 = 0.4247	1037.54 ± 40
293.15 K, x2 = 0.4792	1020.01 ± 40
293.15 K, x2 = 0.5345	1002.84 ± 40
293.15 K, x2 = 0.6031	982.36 ± 40
293.15 K, x2 = 0.6638	964.97 ± 40
293.15 K, x2 = 0.7213	949.05 ± 40
293.15 K, x2 = 0.7832	932.49 ± 40
293.15 K, x2 = 0.8529	914.51 ± 40
293.15 K, x2 = 0.9284	895.76 ± 40
303.15 K, x2 = 0	1180.55 ± 40
303.15 K, x2 = 0.0613	1155.03 ± 40
303.15 K, x2 = 0.1273	1128.84 ± 40
303.15 K, x2 = 0.1732	1111.36 ± 40
303.15 K, x2 = 0.2583	1080.45 ± 40
303.15 K, x2 = 0.3341	1054.45 ± 40
303.15 K, x2 = 0.3619	1045.26 ± 40
303.15 K, x2 = 0.4282	1024.01 ± 40
303.15 K, x2 = 0.4911	1004.69 ± 40
303.15 K, x2 = 0.5538	986.2 ± 40
303.15 K, x2 = 0.6132	969.33 ± 40
303.15 K, x2 = 0.6739	952.71 ± 40
303.15 K, x2 = 0.7428	934.53 ± 40
303.15 K, x2 = 0.8023	919.3 ± 40
303.15 K, x2 = 0.8631	904.39 ± 40
303.15 K, x2 = 0.9347	887.3 ± 40
313.15 K, x2 = 0	1161.28 ± 40
313.15 K, x2 = 0.0643	1135.09 ± 40
313.15 K, x2 = 0.1138	1115.77 ± 40
313.15 K, x2 = 0.1729	1093.62 ± 40
313.15 K, x2 = 0.2483	1066.72 ± 40
313.15 K, x2 = 0.3248	1040.87 ± 40
313.15 K, x2 = 0.3958	1018.07 ± 40
313.15 K, x2 = 0.4587	998.77 ± 40
313.15 K, x2 = 0.518	981.29 ± 40
313.15 K, x2 = 0.5628	968.51 ± 40
313.15 K, x2 = 0.6345	948.78 ± 40
313.15 K, x2 = 0.6948	932.83 ± 40
313.15 K, x2 = 0.7539	917.73 ± 40
313.15 K, x2 = 0.8039	905.34 ± 40
313.15 K, x2 = 0.8621	891.32 ± 40
313.15 K, x2 = 0.9357	874.17 ± 40
323.15 K, x2 = 0	1142.43 ± 40
323.15 K, x2 = 0.0527	1120.67 ± 40
323.15 K, x2 = 0.1328	1089.28 ± 40
323.15 K, x2 = 0.1842	1070.13 ± 40
323.15 K, x2 = 0.2487	1047.11 ± 40
323.15 K, x2 = 0.3398	1016.41 ± 40
323.15 K, x2 = 0.3781	1004.09 ± 40
323.15 K, x2 = 0.4487	982.22 ± 40
323.15 K, x2 = 0.5031	966.07 ± 40
323.15 K, x2 = 0.5529	951.78 ± 40
323.15 K, x2 = 0.6249	931.92 ± 40
323.15 K, x2 = 0.6843	916.18 ± 40
323.15 K, x2 = 0.7451	900.64 ± 40
323.15 K, x2 = 0.8146	883.52 ± 40
323.15 K, x2 = 0.8702	870.29 ± 40
323.15 K, x2 = 0.9429	853.56 ± 40
333.15 K, x2 = 0	1123.99 ± 40
333.15 K, x2 = 0.0578	1099.25 ± 40
333.15 K, x2 = 0.1298	1070.06 ± 40
333.15 K, x2 = 0.1844	1049.03 ± 40
333.15 K, x2 = 0.2358	1030.04 ± 40
333.15 K, x2 = 0.3139	1002.61 ± 40
333.15 K, x2 = 0.3847	979.1 ± 40
333.15 K, x2 = 0.4412	961.2 ± 40
333.15 K, x2 = 0.5055	941.69 ± 40
333.15 K, x2 = 0.5572	926.61 ± 40
333.15 K, x2 = 0.6148	910.43 ± 40
333.15 K, x2 = 0.6627	897.43 ± 40
333.15 K, x2 = 0.7365	878.16 ± 40
333.15 K, x2 = 0.7947	863.56 ± 40
333.15 K, x2 = 0.8634	846.95 ± 40
333.15 K, x2 = 0.9354	830.22 ± 40
343.15 K, x2 = 0	1105.98 ± 40
343.15 K, x2 = 0.0527	1081.81 ± 40
343.15 K, x2 = 0.1278	1049.31 ± 40
343.15 K, x2 = 0.1782	1028.67 ± 40
343.15 K, x2 = 0.2476	1001.67 ± 40
343.15 K, x2 = 0.3279	972.32 ± 40
343.15 K, x2 = 0.3841	952.89 ± 40
343.15 K, x2 = 0.4529	930.23 ± 40
343.15 K, x2 = 0.5139	911.13 ± 40
343.15 K, x2 = 0.5732	893.36 ± 40
343.15 K, x2 = 0.6241	878.7 ± 40
343.15 K, x2 = 0.6742	864.77 ± 40
343.15 K, x2 = 0.7246	851.23 ± 40
343.15 K, x2 = 0.7726	838.75 ± 40
343.15 K, x2 = 0.8523	818.84 ± 40
343.15 K, x2 = 0.9274	800.96 ± 40
353.15 K, x2 = 0	1088.38 ± 40
353.15 K, x2 = 0.0639	1056.4 ± 40
353.15 K, x2 = 0.1128	1033.26 ± 40
353.15 K, x2 = 0.1832	1001.84 ± 40
353.15 K, x2 = 0.2478	974.79 ± 40
353.15 K, x2 = 0.3255	944.31 ± 40
353.15 K, x2 = 0.3859	922.03 ± 40
353.15 K, x2 = 0.4628	895.28 ± 40
353.15 K, x2 = 0.5248	874.93 ± 40
353.15 K, x2 = 0.5819	857.07 ± 40
353.15 K, x2 = 0.6249	844.14 ± 40
353.15 K, x2 = 0.6829	827.36 ± 40
353.15 K, x2 = 0.7249	815.64 ± 40
353.15 K, x2 = 0.7821	800.25 ± 40
353.15 K, x2 = 0.8698	777.8 ± 40
